We go through 79 compounds from paper PMC12040169 (PLOS Biology, 2025).

The nature of this data set: in vitro. As to conditions: human, hela cells, % viability.

As a reminder, the viability is a read-out of living cells in per cent, often relative to untreated cells. For the compound `O=C(Cc1ccccc1)N/N=C/c1cccc2cccnc12` [CBK262778], the viability at 28.5 h, 10 µM came to 85.7%.

`Cc1cccc(-c2ccc(CC3(C(N)=O)CCN(C(=O)Cc4ccccc4)CC3)cc2)c1` [CBK285780]: the viability at 28.5 h, 10 µM is 101%. In the case of `Cc1nn(C)cc1CN1CCN(C(=S)NCCc2ccccc2)CC1` [CBK267069], the viability at 28.5 h, 10 µM was determined as 98.4%. Consider `CN(C)CCN(C)C(=O)c1ccc(-c2ccccc2CO)nc1N(C)C` [CBK076591], for which the viability at 28.5 h, 10 µM came out at 95%. The same measure, in the same setting: as for `CCOc1ccc2nc(NC(=O)c3nc(SCc4ccccc4)ncc3Cl)sc2c1` [CBK269109], the figure is 97.1%; as for `O=C(NCCn1nc2c(cc1=O)CCCCC2)c1ccccc1F` [CBK282300], 89.3%; as for `CSc1nc(N)nc(SC(C(=O)O)c2ccccc2)c1C#N` (stereo not shown) [CBK267461], 93.4%. Consider `CC(C)C(=O)Nc1ccc2ccc(-c3ccc(C(C)(C)C)cc3)nc2n1` [CBK073669], for which the viability at 28.5 h, 10 µM was determined as 106%. `Cc1noc(C)c1NC(=O)c1cn(C)c2ccccc12` [CBK200312]: the viability at 28.5 h, 10 µM is 87.3%.

Consider `O=C(Nc1ccccc1-c1nc2ccccc2s1)c1sc2cc(Cl)ccc2c1Cl` [CBK268642], for which the viability at 28.5 h, 10 µM was 88.5%. Turning to `CN(C(=O)Cc1ccsc1)c1nc2c(s1)CCc1c-2cnn1C` [CBK281929], the viability at 28.5 h, 10 µM came to 82.4%. For `Cc1nn(C)c(Cl)c1S(=O)(=O)NCc1cc(C)n(C)n1` [CBK062154], the viability at 28.5 h, 10 µM was determined as 94.5%. Consider `CSc1nnc2n3ncnc3c3c4c(sc3n12)CCCC4C` (stereo not shown) [CBK288542], for which the viability at 28.5 h, 10 µM came to 97.3%. For the compound `COc1cccc(C(=O)N2CC=C[C@H]2C(=O)NC2CC2)c1` [CBK284278], the viability at 28.5 h, 10 µM came out at 94.4%. Regarding `Cc1cc2c(cc3c(=O)n(CC(=O)NC4CC4)nc(C)n32)s1` [CBK284067], the viability at 28.5 h, 10 µM amounted to 74.3%.

Regarding `O=C(Cn1ncn2nc(-c3ccccc3)cc2c1=O)Nc1ccc(F)cc1` [CBK287759], the viability at 28.5 h, 10 µM turned out to be 85.8%. In the case of `O=C(NC(c1ccc(Cl)cc1)c1cccnc1)C1CCN(C(=O)C2CC2)CC1` (stereo not shown) [CBK059686], the viability at 28.5 h, 10 µM was 90.4%.

For the compound `Cc1ccc(-c2cc(C(=O)N(C)CC3(C)COC3)[nH]n2)cc1` [CBK281717], the viability at 28.5 h, 10 µM was found to be 90.9%. With `Cc1nc(CN2CCN(c3ccc4nnc(C(F)(F)F)n4n3)CC2)cs1` [CBK239750], the viability at 28.5 h, 10 µM was 95.1%.

For `CCOc1ccc(CN(Cc2cc(=O)n3nc(-c4ccccc4)sc3n2)CC(C)C)cc1` [CBK294412], the viability at 28.5 h, 10 µM is 103%.

Regarding `COc1ccc(Nc2ccc(-c3cnc(OC)nc3OC)cn2)c(C)c1` [CBK036827], the viability at 28.5 h, 10 µM was 115%. As for `Cc1ccc(CNc2nc3c(c(=O)[nH]c(=O)n3C)n2CC(O)COC(C)C)cc1` (stereo not shown) [CBK139849], the viability at 28.5 h, 10 µM is 87.3%.

As to `O=C(C1CCCC1)N1CCC(c2nnc3n2CCCCC3)CC1` [CBK284612], the viability at 28.5 h, 10 µM amounted to 103%. Turning to `O=C(NCC1CCCO1)[C@H]1CCCC[C@H]1C(=O)O` (stereo partly shown) [CBK287104], the viability at 28.5 h, 10 µM amounted to 88.7%.

Regarding `O=C(NC1CCCCC1)N[C@H]1CO[C@H]2[C@@H]1OC[C@@H]2n1cc(-c2ccccc2)nn1` [CBK289505], the viability at 28.5 h, 10 µM was 84.6%. On the same count and under the same terms, as for `COC(=O)c1c(C)n[nH]c1COc1ccccc1` [CBK057823], the figure is 92.1%; as for `O=C(NCN1CCN(c2ccc([N+](=O)[O-])cc2)CC1)c1cccnc1` [CBK264909], 106%. The same measure, in the same setting: as for `Cc1cc(OC(F)(F)F)ccc1NS(=O)(=O)c1cnn(-c2ccccc2)c1C` [CBK062354], the figure is 91.1%; as for `CC1(C)CC(NC(=O)CCc2cc(C(C)(C)C)c(O)c(C(C)(C)C)c2)CC(C)(C)N1` [CBK261986], 88.9%.

With `Cc1cnc(CNC(=O)Cn2nnc(-c3ccc(CN4CCC(C)CC4)cc3)n2)cn1` [CBK137067C], the viability at 28.5 h, 10 µM was 101%.

Consider `O=C(Nc1ccc(N2CCCCC2)c(F)c1)C1CC(=O)N(C2CC2)C1` (stereo not shown) [CBK281387], for which the viability at 28.5 h, 10 µM was 108%.

In the case of `CCc1noc(C)c1C(=O)NC(C)c1cc2ccccc2o1` (stereo not shown) [CBK247065], the viability at 28.5 h, 10 µM amounted to 87.1%.

For the compound `CCOc1ccc(-c2nc(CSc3n[nH]c(=O)n3Cc3ccccc3)cs2)cc1` [CBK296737], the viability at 28.5 h, 10 µM turned out to be 102%. As for `CC1(C)CC2(CC(C)(C(=O)CSc3nnc(-c4ccccc4Br)[nH]3)OC2=O)C(=O)O1` (stereo not shown) [CBK266713], the viability at 28.5 h, 10 µM came to 102%. On to `Cc1cc(C)c(NC(=O)CSCC(=O)Nc2ccc3ccccc3c2)c(C)c1` [CBK264856], for which the viability at 28.5 h, 10 µM was 100%. As for `O=C(O)C(Cc1ccccc1)N1C(=O)/C(=C/c2ccc([N+](=O)[O-])cc2)SC1=S` (stereo not shown) [CBK263108], the viability at 28.5 h, 10 µM was determined as 84.3%. For `COc1cc(C(=O)NCc2ccccn2)cc(OC)c1OC` [CBK058552], the viability at 28.5 h, 10 µM came to 88.3%. Same read-out and setting: as for `COc1cncc(-c2cncc(N[C@H](CO)C(C)C)n2)c1` [CBK065329], the figure is 106%; as for `CCCC/C=C/c1cncc(N2CCCC2CO)n1` (stereo not shown) [CBK065402], 91.8%; as for `CSc1nnc(-c2ccccc2[N+](=O)[O-])n1CC(C)C` [CBK074959], 98.4%. On the same count and under the same terms, as for `CC(=O)Nc1nc(-c2cccs2)c(-c2cc(C)no2)s1` [CBK284493], the figure is 98.9%; as for `O=C(O)C1Nc2c(Cl)cc(Cl)cc2C2C=CCC12` (stereo not shown) [CBK077855], 78.5%. With `CC(CC(=O)NCC1(C)COC1)n1cnc2ccccc21` (stereo not shown) [CBK281755], the viability at 28.5 h, 10 µM worked out at 78.1%. Regarding `COC(=O)C1C=C(NS(=O)(=O)c2ccc(-c3ccnc(SC)n3)s2)C=CC1` (stereo not shown) [CBK160388], the viability at 28.5 h, 10 µM is 104%. As for `O=C(CC1CCCCO1)Nc1cccc(Cn2ccnc2)c1` (stereo not shown) [CBK282204], the viability at 28.5 h, 10 µM is 90.6%. Still for that read-out and setting: as for `CSCCCNC(=O)c1cnn2c(C)c(Cc3cccnc3)c(C)nc12` [CBK162164], the figure is 104%; as for `Cc1nc(CCNC(=O)N2CCC(Oc3cccnc3)CC2)sc1Cl` [CBK306636], 93.8%.

With `O=C(C[C@@H]1CCNC[C@@H]1Cc1cc(-c2ccccc2)on1)Nc1cccc(O)c1` [CBK289149], the viability at 28.5 h, 10 µM was 102%. Still for that read-out and setting: as for `Cc1c(C(=O)N2CCC(c3nc(C)n4ccsc34)CC2)cnn1C` [CBK285201], the figure is 111%; as for `O=C(O)c1ccc(S(=O)(=O)c2ccc3c(c2)C(=O)N(c2ccc(Sc4ccc([N+](=O)[O-])cc4)cc2)C3=O)cc1` [CBK262869], 104%. On the same count and under the same terms, as for `COc1cccc2c1cc(C(=O)NCc1cc(C3CC3)[nH]n1)n2C` [CBK283282], the figure is 80.4%; as for `CC1CCCN(CC(C)(C)NC(=O)c2ccnn2C(F)F)C1` (stereo not shown) [CBK282099], 98.4%; as for `Cc1[nH]c2ccccc2c1/C=N/c1ccc(/N=C/c2c(C)[nH]c3ccccc23)cc1` [CBK261226], 83.4%. Turning to `COCCc1noc(CC2CCN(c3ncncc3C#N)CC2)n1` [CBK304178], the viability at 28.5 h, 10 µM was found to be 90.5%. As for `O=C(c1cc(F)c(F)cc1F)N1CCC2(CCCN(Cc3ccc(Cl)c(Cl)c3)C2)C1` (stereo not shown) [CBK131990], the viability at 28.5 h, 10 µM amounted to 95.1%. For `Oc1cccc(CN2CCN(c3cccc(Cl)c3)CC2)c1` [CBK261543], the viability at 28.5 h, 10 µM (bulk resorufin, single well) came out at 90.1%. Turning to `CCC(c1ccccc1)N1CCN(Cc2noc(C)n2)CC1` (stereo not shown) [CBK305084], the viability at 28.5 h, 10 µM is 90.3%.

In the case of `N=C1NS(=O)(=O)NC1c1ccc(Cl)cc1` (stereo not shown) [CBK263858], the viability at 28.5 h, 10 µM was determined as 88.4%.

As for `CNC(=O)c1c(C)nc2ccccc2c1SCCC(=O)O` [CBK154987T], the viability at 28.5 h, 10 µM was 101%. Turning to `O=C(Nc1ccc(NC(=O)C2CC=CCC2C(=O)O)cc1Cl)C1CCCCC1` (stereo not shown) [CBK268772], the viability at 28.5 h, 10 µM worked out at 89.7%. Regarding `Cc1c(C(=O)N2CCOCC2)sc2nc(-c3ccc(Cl)cc3)nn12` [CBK010863], the viability at 28.5 h, 10 µM was found to be 91.4%. On the same count and under the same terms, as for `Nc1ncc(-c2ccsc2)nc1-c1ccc(O)cc1` [CBK115631], the figure is 100%; as for `COCC(=O)N1CCN(Cc2cccc(-c3ccccn3)c2)CC1` [CBK304035], 91.3%. On the same count and under the same terms, as for `COCC(=O)N1CCc2sccc2C1c1ccc(NC(=O)c2cccc(F)c2)cc1` (stereo not shown) [CBK286468], the figure is 102%; as for `CS(=O)(=O)Cc1cccc(C(=O)Nc2ccc(Oc3ccccc3)cc2)c1` [CBK297111], 87.5%; as for `Cc1ccc(-c2nnc(CNC(=O)Cc3ccccc3Cl)o2)s1` [CBK284648], 85.2%.

In the case of `CN(CC(=O)OCC(=O)c1ccccc1)S(=O)(=O)c1ccc(Cl)cc1` [CBK264363], the viability at 28.5 h, 10 µM was determined as 105%. In the case of `O=C(O)c1ccc(S(=O)(=O)Nc2ccc(OC3CCCC3)cc2)cc1` [CBK296658], the viability at 28.5 h, 10 µM was found to be 110%.

Turning to `Cc1ccc(SCCN2CCN(Cc3ccccc3)CC2)cc1` [CBK268653G], the viability at 28.5 h, 10 µM turned out to be 99.1%. As to `CCCCc1c(Cl)nc(C#N)c2c1CCCC2` [CBK020252], the viability at 28.5 h, 10 µM worked out at 98.9%.

Consider `CC1CCc2noc(C3CCN(C(=O)c4ccnn4C)CC3)c2C1` (stereo not shown) [CBK285232], for which the viability at 28.5 h, 10 µM was found to be 105%.

Regarding `CC(=O)Nc1ccc(S(=O)(=O)/N=C(\Nc2nc(C)cc(C)n2)Nc2ccccc2F)cc1` [CBK266134], the viability at 28.5 h, 10 µM turned out to be 106%. Turning to `Cc1oc(-c2cccs2)cc1C(=O)O` [CBK021183], the viability at 28.5 h, 10 µM came out at 93.5%. In the case of `CCCCCCn1nc(C(=O)NCC(=O)O)c2ccccc2c1=O` [CBK297491], the viability at 28.5 h, 10 µM turned out to be 97.3%. Consider `CC(O)CNC(=O)C1(c2ccccc2)CCCC1` (stereo not shown) [CBK149542], for which the viability at 28.5 h, 10 µM amounted to 96%. In the case of `O=C(Nc1nc(-c2cccnc2)cs1)c1cccc(N2C(=O)CCC2=O)c1` [CBK287564], the viability at 28.5 h, 10 µM was 108%. `O=C(Oc1cccc(-c2cnc3ccccc3n2)c1)c1ccc(S(=O)(=O)N2CCCCC2)cc1` [CBK267785]: the viability at 28.5 h, 10 µM was 104%. For the compound `CCNS(=O)(=O)c1ccc2c(c1)N(Cc1nc(-c3ccco3)no1)CC2` [CBK306184], the viability at 28.5 h, 10 µM was found to be 81.1%. As to `CN1CCN(C(=O)c2c(NS(=O)(=O)c3cc(F)c(Br)cc3F)sc3c2CCCC3)CC1` [CBK050419], the viability at 28.5 h, 10 µM was found to be 90.5%.
